Laboratory results published in patent US10882837B2, “Amide compounds and use thereof” (ALPHALA CO., LTD., priority 2017, dated 2021).

Experiments:
glucagon receptor (GCGR) = biological target: T1, glucagon receptor (GCGR) (Homo sapiens, UniProt P47871); test: Glucagon cAMP inhibition assay (Cisbio cAMP Dynamic 2 HTRF); type: cell-based; details: GCGR overexpressed CHO-K1 cells or human primary hepatocytes (not specified); glucagon at EC50
T1 construct: expressed in transfected cells; host or cells: CHO-K1
Experimental: Glucagon eAMP Inhibition Assay
Downstream secondary messenger eAMP induced by glucagon was detected by Cisbio cAMP Dynamic 2 kit. Testing compounds were each prepared as a dimethyl sulfoxide (DMSO) solution at the concentration of 10 mM. To evaluate the potency of compounds in inhibiting the cAMP production, glucagon receptor (GCGR) overexpressed CHO-K1 cells or human primary hepatocytes were treated with compounds with a serial dilution. The cells were re-suspended in Hank's Balanced Salt solution (HBSS) contained 0.1% (w/v) bovine serum albumin and 800 nM 3-isobutyl-1-methylxanthine (IBMX) and seeded into low volume, 384 wells white plate. The diluted compounds were then added into the plate for 30 minutes pre-incubation where the final DMSO concentration was 1%. The cells were stimulated with glucagon at the concentration equaled to EC50 (an indicium of the concentration of a drag that gives half-maximal response) for 30 minutes at room temperature. After incubation, lysis buffer contain cAMP antibody and fluorescence acceptor were added into each well for additional 60 minutes incubation. Results were recorded by Molecular Devices SpectraMax Paradigm with the HTRF Detection Cartridges and the IC50 value of each compound in inhibiting the cAMP production was calculated with non-linear regression based on the amount of cAMP production.

GCGR = GCGR (Homo sapiens, UniProt P47871); test: I125-glucagon binding assay (competition, GCGR membrane fractions); set-up: expressed in transfected cells; host or cells: CHO-K1; inhibition: dose or concentration left out as unconfirmed; details: for IC50: competition with I125-glucagon 0.0625 nM, membrane fractions from GCGR overexpressed CHO-K1 cells
Experimental: I^125-Glucagon Binding Assay
The binding affinity of each compound was evaluated by a competition assay with I^125-glucagon. GCGR membrane fractions were obtained from GCGR overexpressed CHO-K1 cells as a stock of 1 mg/ml concentration. To evaluate the IC50 of compounds binding to GCGR, GCGR membrane fractions were treated with compounds with a serial dilution. The membrane fractions were diluted to 7.5 microgram per well in 70 microliter assay buffer contained 50 mM Tris pH 7.4 and 0.5% (w/v) bovine serum albumin and added into 96 wells plate. The membrane fractions were then mixed with 10 microliter diluted compounds. After 5 minutes pre-incubation, 20 microliter I^125 labeled glucagon (Perkin Elmer) was added into each well at the final concentration of 0.0625 nM. The assay mixtures were incubated at 25° C. for 30 minutes and then transferred onto the Millipore Multiscreen GF/B Plate coated with 0.5% (w/v) Polyethyleneimine. The filter plate was washed with wash buffer contained 50 mM Tris pH 7.4 for 2 times, 300 microliter each time. The residual isotope was detected by Hidex CHAMELEON V micro-beta counter and the IC50 value of each compound binding to GCGR was calculated with non-linear regression.

[1] = read-out: percentage of inhibition (number in parenthesis in IC50 binding column)

T1 sequence (P47871 26-477, species assumed): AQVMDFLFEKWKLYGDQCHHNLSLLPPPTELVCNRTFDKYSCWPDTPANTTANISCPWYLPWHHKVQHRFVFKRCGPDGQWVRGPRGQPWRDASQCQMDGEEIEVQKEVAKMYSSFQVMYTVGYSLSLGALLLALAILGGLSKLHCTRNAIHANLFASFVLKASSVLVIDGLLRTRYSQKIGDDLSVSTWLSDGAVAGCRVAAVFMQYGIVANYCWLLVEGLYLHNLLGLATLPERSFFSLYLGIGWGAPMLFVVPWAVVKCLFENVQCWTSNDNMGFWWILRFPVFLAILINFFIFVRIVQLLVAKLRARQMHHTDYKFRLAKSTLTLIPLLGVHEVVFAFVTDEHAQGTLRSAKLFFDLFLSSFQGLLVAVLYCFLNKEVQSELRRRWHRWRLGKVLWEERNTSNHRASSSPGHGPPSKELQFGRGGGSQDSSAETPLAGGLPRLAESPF
Chain of GCGR (P47871 26-477, species assumed): as above

Compound	IC50 (glucagon receptor (GCGR)) [nM]	IC50 (GCGR) [nM]	inhibition (GCGR; [1]) [%]	inhibition at 30 µM (GCGR; compound at 30 μM, read-out: percentage of inhibition (number in parenthesis in IC50 binding column)) [%]
CCCC[C@@H](Nc1ccc(C(=O)NCCC(=O)OCC)cc1)c1ccc(-c2nnc(C(F)(F)F)o2)cc1 [Compound 1-52, ethyl (R)-3-(4-((1-(4-(5-(trifluoromethyl)-1,3,4-oxadiazol-2-yl)phenyl)pentyl)amino)benzamido)propanoate]	439	> 30000		
CC(C)C(Nc1ccc(C(=O)NCCC(=O)O)cc1)c1ccc(-c2nnc(-c3ccc(F)cc3)o2)cc1 (stereo not drawn) [Compound 1-18, 3-(4-((1-(4-(5-(4-Fluorophenyl)-1,3,4-oxadiazol-2-yl)phenyl)-2-methylpropyl)amino)benzamido)propanoic acid]	4350	122		
CCOC(=O)CCNC(=O)c1ccc(C(Nc2ccc(-c3nnc(-c4ccccc4)o3)cc2)C(C)CC)cc1 (stereo not drawn) [Compound 3-5, ethyl 3-(4-(2-methyl-1-((4-(5-phenyl-1,3,4-oxadiazol-2-yl)phenyl)amino)butyl)benzamido)propanoate]	311	963		
CC(C)CC(Nc1ccc(C(=O)NCCC(=O)O)cc1)c1ccc(-c2nnc(C(F)(F)F)o2)cc1 (stereo not drawn) [Compound 1-9, 3-(4-((3-Methyl-1-(4-(5-(trifluoromethyl)-1,3,4-oxadiazol-2-yl)phenyl)butyl)amino)benzamido)propanoic acid]	17100	956		
CCOC(=O)CCNC(=O)c1ccc(N[C@H](CC(C)C)c2ccc(-c3nc4ccccc4o3)cc2)cc1 [Compound 4-13, ethyl (R)-3-(4-((1-(4-(benzo[d]oxazol-2-yl)phenyl)-3-methylbutyl)amino)benzamido)propanoate]	361	31600		
CCOC(=O)CCNC(=O)c1ccc(NC(CC(C)C)c2ccc(-c3noc(C(C)(C)C)n3)cc2)cc1 (stereo not drawn) [Compound 2-5, ethyl 3-(4-((1-(4-(5-(tert-butyl)-1,2,4-oxadiazol-3-yl)phenyl)-3-methylbutyl)amino)benzamido)propanoate]	395	6250	63	
CCOC(=O)CCNC(=O)c1ccc(N[C@H](c2ccc(-c3nnc(C(F)(F)F)o3)cc2)C(C)CC)cc1 (stereo partly drawn) [Compound 1-34, ethyl 3-(4-(((1S)-2-methyl-1-(4-(5-(trifluoromethyl)-1,3,4-oxadiazol-2-yl)phenyl)butyl)amino)benzamido)propanoate]	42	16100		
CCOC(=O)CCNC(=O)c1ccc(N[C@@H](c2ccc(-c3nc4ccccc4o3)cc2)C(C)CC)cc1 (stereo partly drawn) [Compound 4-21, ethyl 3-(4-(((1R)-1-(4-(benzo[d]oxazol-2-yl)phenyl)-2-methylbutyl)amino)benzamido)propanoate]	242	923		
CCOC(=O)CCNC(=O)c1ccc(NC(c2ccc(-c3noc(-c4ccccc4)n3)cc2)C2CCCCC2)cc1 (stereo not drawn) [Compound 2-16, ethyl 3-(4-((cyclohexyl(4-(5-phenyl-1,2,4-oxadiazol-3-yl)phenyl)methyl)amino)benzamido)propanoate]	438	178		
COC(=O)CCNC(=O)c1ccc(N[C@H](c2ccc(-c3noc(-c4ccccc4)n3)cc2)C(C)C)cc1 [Compound 2-49, methyl (S)-3-(4-((2-methyl-1-(4-(5-phenyl-1,2,4-oxadiazol-3-yl)phenyl)propyl)amino)benzamido)propanoate]	55.8	285		
CCOC(=O)CCNC(=O)c1ccc(N[C@H](c2ccc(-c3nnc(-c4ccccc4)o3)cc2)C(C)C)cc1 [Compound 1-39, (S)-ethyl 3-(4-(2-methyl-1-(4-(5-phenyl-1,3,4-oxadiazol-2-yl)phenyl)propylamino)benzamido)propanoate]	40.3	2850		
CCOC(=O)CCNC(=O)c1ccc(N[C@H](c2ccc(-c3nc(-c4ccccc4)no3)cc2)C(C)CC)cc1 (stereo partly drawn) [Compound 5-5, ethyl 3-(4-(((1S)-2-methyl-1-(4-(3-phenyl-1,2,4-oxadiazol-5-yl)phenyl)butyl)amino)benzamido)propanoate]	46	876		
CCOC(=O)CCNC(=O)c1ccc(N[C@@H](c2ccc(-c3noc(-c4ccccc4)n3)cc2)C(C)C)cc1 [Compound 2-22, ethyl (R)-3-(4-((2-methyl-1-(4-(5-phenyl-1,2,4-oxadiazol-3-yl)phenyl)propyl)amino)benzamido)propanoate]	245	673		
CCC(C)[C@H](Nc1ccc(C(=O)NCCC(=O)O)cc1)c1ccc(-c2nc(-c3ccccc3)no2)cc1 (stereo partly drawn) [Compound 5-6, 3-(4-(((1S)-2-methyl-1-(4-(3-phenyl-1,2,4-oxadiazol-5-yl)phenyl)butyl)amino)benzamido)propanoic acid]	239	13.1		
CCOC(=O)CCNC(=O)c1ccc(N[C@H](c2ccc(-c3noc(C(F)(F)F)n3)cc2)C(C)CC)cc1 (stereo partly drawn) [Compound 2-29, ethyl 3-(4-(((1S)-2-methyl-1-(4-(5-(trifluoromethyl)-1,2,4-oxadiazol-3-yl)phenyl)butyl)amino)benzamido)propanoate]	172	1820	18	
CC(C)C[C@H](Nc1ccc(C(=O)NCCC(=O)O)cc1)c1ccc(-c2nc3ccccc3o2)cc1 [Compound 4-18]	1750	83		
CCOC(=O)CCNC(=O)c1ccc(N[C@H](c2ccc(-c3nnc(-c4ccccc4)o3)cc2)C(C)CC)cc1 (stereo partly drawn) [Compound 1-47, ethyl 3-(4-(((1S)-2-methyl-1-(4-(5-phenyl-1,3,4-oxadiazol-2-yl)phenyl)butyl)amino)benzamido)propanoate]	37	226		28
CCCC[C@@H](Nc1ccc(C(=O)NCCC(=O)O)cc1)c1ccc(-c2noc(C(F)(F)F)n2)cc1 [Compound 2-48, (R)-3-(4-((1-(4-(5-(trifluoromethyl)-1,2,4-oxadiazol-3-yl)phenyl)pentyl)amino)benzamido)propanoic acid]	1570	1180		
CCCCC(Nc1ccc(C(=O)NCCC(=O)OC)cc1)c1ccc(-c2noc(-c3ccccc3)n2)cc1 (stereo not drawn) [Compound 2-32, methyl 3-(4-((1-(4-(5-phenyl-1,2,4-oxadiazol-3-yl)phenyl)pentyl)amino)benzamido)propanoate]	147	616		
CCCC[C@H](Nc1ccc(C(=O)NCCC(=O)OCC)cc1)c1ccc(-c2noc(-c3ccccc3)n2)cc1 [Compound 2-33, ethyl (S)-3-(4-((1-(4-(5-phenyl-1,2,4-oxadiazol-3-yl)phenyl)pentyl)amino)benzamido)propanoate]	283	1040		
CC(C)C[C@@H](Nc1ccc(C(=O)NCCC(=O)O)cc1)c1ccc(-c2noc(-c3ccccc3)n2)cc1 [Compound 2-44, (R)-3-(4-((3-methyl-1-(4-(5-phenyl-1,254-oxadiazol-3-yl)phenyl)butyl)amino)benzamido)propanoic acid]	334	199		
CCOC(=O)CCNC(=O)c1ccc(N[C@@H](CC(C)C)c2ccc(-c3nc(-c4ccccc4)no3)cc2)cc1 [Compound 5-1, ethyl (S)-3-(4-((3-methyl-1-(4-(3-phenyl-1,2,4-oxadiazol-5-yl)phenyl)butyl)amino)benzamido)propanoate]	52	637		
CCOC(=O)CCNC(=O)c1ccc(N[C@H](c2ccc(-c3nc4ccccc4o3)cc2)C(C)CC)cc1 (stereo partly drawn) [Compound 4-19, Ethyl 3-(4-(((1S)-1-(4-(benzo[d]oxazol-2-yl)phenyl)-2-methylbutyl)amino)benzamido)propanoate]	52	446		
CCOC(=O)CCNC(=O)c1ccc(NC(c2ccc(-c3noc(-c4cccs4)n3)cc2)C(C)C)cc1 (stereo not drawn) [Compound 2-11, ethyl 3-(4-((2-methyl-1-(4-(5-(thiophen-2-yl)-1,2,4-oxadiazol-3-yl)phenyl)propyl)amino)benzamido)propanoate]	180	3060	38	
CCCCC(Nc1ccc(C(=O)NCCC(=O)O)cc1)c1ccc(-c2nnc(-c3ccccn3)o2)cc1 (stereo not drawn) [Compound 1-16, 3-(4-((1-(4-(5-(Pyridin-2-yl)-1,3,4-oxadiazol-2-yl)phenyl)pentyl)amino)benzamido)propanoic acid]	15700	203		
